Results taken from PubChem BioAssay AID1259407 (Chemical Carcinogenesis Research Information System (CCRIS), 2018).
Calls of active or inactive are those of the source. No rule for the calls is given here.

Test system: CCRIS mutagenicity, Ames/micronucleus/aberration tests
Test: CCRIS mutagenicity studies

For `Nc1ncnc2c1ncn2[C@@H]1O[C@H](CO)[C@@H](O)[C@H]1O`, the mutagenic call (Test System: AMES SALMONELLA TYPHIMURIUM, Strain/Indicator: TA97, Metabolic Activation: NONE, Method: STANDARD PLATE) was “inactive; negative”, the mutagenic call (Test System: AMES SALMONELLA TYPHIMURIUM, Strain/Indicator: TA97, Metabolic Activation: RAT, LIVER, S-9, AROCLOR 1254, Method: STANDARD PLATE) was “inactive; negative” and the mutagenic call (Test System: AMES SALMONELLA TYPHIMURIUM, Strain/Indicator: TA98, Metabolic Activation: NONE, Method: STANDARD PLATE) was “inactive; negative”. The mutagenic call (Test System: AMES SALMONELLA TYPHIMURIUM, Strain/Indicator: TA98, Metabolic Activation: RAT, LIVER, S-9, AROCLOR 1254, Method: STANDARD PLATE) was “inactive; negative”, the mutagenic call (Test System: AMES SALMONELLA TYPHIMURIUM, Strain/Indicator: TA100, Metabolic Activation: NONE, Method: STANDARD PLATE) was “inactive; negative” and the mutagenic call (Test System: AMES SALMONELLA TYPHIMURIUM, Strain/Indicator: TA100, Metabolic Activation: RAT, LIVER, S-9, AROCLOR 1254, Method: STANDARD PLATE) was “inactive; negative”. For the same compound, the mutagenic call (Test System: AMES SALMONELLA TYPHIMURIUM, Strain/Indicator: TA1535, Metabolic Activation: NONE, Method: STANDARD PLATE) was “inactive; negative”, the mutagenic call (Test System: AMES SALMONELLA TYPHIMURIUM, Strain/Indicator: TA1535, Metabolic Activation: RAT, LIVER, S-9, AROCLOR 1254, Method: STANDARD PLATE) was “inactive; negative” and the mutagenic call (Test System: AMES SALMONELLA TYPHIMURIUM, Strain/Indicator: TA1538, Metabolic Activation: NONE, Method: STANDARD PLATE) was “inactive; negative”. For the same compound, the mutagenic call (Test System: AMES SALMONELLA TYPHIMURIUM, Strain/Indicator: TA1538, Metabolic Activation: RAT, LIVER, S-9, AROCLOR 1254, Method: STANDARD PLATE) was “inactive; negative”, the mutagenic call (Test System: CHINESE HAMSTER OVARY, Strain/Indicator: CHO-KL-BH4 (HGPRT), Metabolic Activation: NONE) was “inactive; negative” and the mutagenic call (Test System: CHINESE HAMSTER OVARY, Strain/Indicator: CHO-KL-BH4 (HGPRT), Metabolic Activation: RAT, LIVER, S-9, AROCLOR 1254) was “inactive; negative”.
With `C[O+](C)C.[Cl][Sb-]([Cl])([Cl])([Cl])([Cl])[Cl]` the mutagenic call (Test System: AMES SALMONELLA TYPHIMURIUM, Strain/Indicator: TA98, Metabolic Activation: NONE, Method: PREINCUBATION) was “inactive; negative”, the mutagenic call (Test System: AMES SALMONELLA TYPHIMURIUM, Strain/Indicator: TA98, Metabolic Activation: RAT, LIVER, S-9, AROCLOR 1254 (10%), Method: PREINCUBATION) was “inactive; negative” and the mutagenic call (Test System: AMES SALMONELLA TYPHIMURIUM, Strain/Indicator: TA100, Metabolic Activation: NONE, Method: PREINCUBATION) was “inactive; negative”. The mutagenic call (Test System: AMES SALMONELLA TYPHIMURIUM, Strain/Indicator: TA1535, Metabolic Activation: HAMSTER, LIVER, S-9, AROCLOR 1254 (10%), Method: PREINCUBATION) was “inactive; negative”, the mutagenic call (Test System: AMES SALMONELLA TYPHIMURIUM, Strain/Indicator: TA1535, Metabolic Activation: NONE, Method: PREINCUBATION) was “inactive; negative” and the mutagenic call (Test System: AMES SALMONELLA TYPHIMURIUM, Strain/Indicator: TA1535, Metabolic Activation: RAT, LIVER, S-9, AROCLOR 1254 (10%), Method: PREINCUBATION) was “inactive; negative”. For the same compound, the mutagenic call (Test System: AMES SALMONELLA TYPHIMURIUM, Strain/Indicator: TA1537, Metabolic Activation: HAMSTER, LIVER, S-9, AROCLOR 1254 (10%), Method: PREINCUBATION) was “inactive; negative”, the mutagenic call (Test System: AMES SALMONELLA TYPHIMURIUM, Strain/Indicator: TA1537, Metabolic Activation: NONE, Method: PREINCUBATION) was “inactive; negative” and the mutagenic call (Test System: AMES SALMONELLA TYPHIMURIUM, Strain/Indicator: TA1537, Metabolic Activation: RAT, LIVER, S-9, AROCLOR 1254 (10%), Method: PREINCUBATION) was “inactive; negative”. For the same compound, the mutagenic call (Test System: MOUSE LYMPHOMA, Strain/Indicator: L5178Y (TK+/TK-), Metabolic Activation: RAT, LIVER, S-9, AROCLOR 1254, Method: SUSPENSION/PLATE) was “active; positive. reevaluation of results: positive” and the mutagenic call (Test System: Mouse lymphoma, Strain/Indicator: L5178Y (tk+/tk-), Metabolic Activation: None, Method: Suspension/plate) was “inactive; negative”.
